Experimental data published in article PMC10791652, “The adhesion GPCR GPR116/ADGRF5 has a dual function in pancreatic islets regulating somatostatin release and islet development” (Communications Biology, 2024).
One block for each compound: values may come before it. Numbered stars: 1 amine (or outer) side, 2 acyl side, 3 side chain; on linkers, the order of the positions; unused ones are H or OH. Bridge positions count the residues as written; N and C are the ends. Square brackets hold non-standard residues; d marks the D form. Ends that are not written are not given here. Peptide text beside a SMILES is read from it. * marks the point of attachment. Leu(3R-OH,Nα-propionyl) = CCC(=O)N[C@H](C(=O)*)[C@H](O)C(C)C; X1 = CC(C)[C@@H](O[*:3])[C@H](N[*:1])C(=O)[*:2]; NMeT = CN[C@H](C(=O)O)[C@@H](C)O; dPhLac = O=C(O)[C@H](O)Cc1ccccc1; NMeA = CN[C@@H](C)C(=O)O; NMeDha = C=C(NC)C(=O)O

Columns and labels:
[1] = system: muscarinic acetylcholine receptors; test: Fura-2 Ca2+ imaging in intact pancreatic islets (carbachol positive control); assay type: cell-based, mouse; settings: 100 µM carbachol, fura-2 ratio F340/F380
Method: (§1) Fura-2-based Ca^2+ imaging was performed in transfected HEK293T cells (Supplementary Experimental Procedures) and intact pancreatic islets using a monochromator-based imaging system, and the imaging software TILLvisION 4.0 (T.I.L.L. Photonics). Emitted fluorescence (excited at 340 and 380 nm) was acquired at intervals of 2 seconds and corrected for background fluorescence. HEK293T cells and islets were loaded with 5 µM fura-2 AM in standard bath solution containing 140 mM NaCl, 10 mM HEPES, 5 mM KCl, 2 mM CaCl2, 1 mM MgCl2, and 3 mM glucose for 30 or 60 min. HEK293T cells (25,000 cells/well) were seeded into 24-well plates on poly-L-lysine coated glass cover slips and were transiently transfected with plasmids encoding for GPR116 and GFP the next day. Ca^2+ imaging was carried out 72 h post transfection. HEK293T cells were exposed to p116sc, p116 (1 mM each), and ATP (100 µM) in standard bath solution. Pancreatic mouse islets (3 - 4 islets per coverslip) were transferred one day after preparation into 12-well plates on poly-L-lysine coated glass cover slips. 48 h after seeding islets were exposed to 1 mM p116sc, 1 mM p116, and 100 µM carbachol (CCh) in standard bath solution.

[2] = system: growth hormone secretagogue receptor/ghrelin (GHS-R) receptor; test: Fura-2 Ca2+ imaging in intact pancreatic islets (ghrelin); assay type: cell-based, mouse; settings: 300 nM ghrelin
[3] = system: endogenous purinergic receptors; test: Fura-2 Ca2+ imaging in HEK293T cells (ATP control); assay type: cell-based; settings: 100 µM ATP
Method: as §1

[4] = system: mock-transfected HEK293T cells; test: Fura-2 Ca2+ imaging in mock-transfected HEK293T cells; assay type: cell-based; settings: 1 mM peptide or 100 µM ATP
Method: as §1

Gαq/11 protein = test: Somatostatin secretion from islets after pre-incubation with Gq inhibitor; assay type: cell-based, mouse; settings: pre-incubation with FR900359, then 2 mM p116, high glucose, 30 min
Method: Equilibration of five islets was performed in KRB containing 2.8 mM glucose for 30 min at 37 °C in 96-well plates. If not mentioned otherwise, islets were stimulated with peptide solution or respective controls in KRB for 30 min at 37 °C. Islets were lysed with acid ethanol and supernatant as well as lysates kept frozen at −20 °C until measurement. To measure insulin the AlphaLISA technology (Perkin Elmer) was used according to the manufacturer’s protocol in 384-well OptiPlate microplates (Perkin Elmer) with the EnVision Multilabel Reader (Perkin Elmer). Somatostatin amounts were determined using either AlphaLISA (Perkin Elmer) or ELISA (Phoenix Pharmaceuticals). For reliable measurement protocol adaptions were necessary. For AlphaLISA these were as follows: increasing sample volumes to 35 µl/well, reduced bead volume of 5 µl/well, and an extended incubation period with donor beads of 90 min. For the ELISA measurement the sample incubation time was extended to over-night and the biotinylated peptide was diluted 1:5 to achieve reliable results.

- Ca2+ response in pancreatic islets [1]: strong Ca^2+ elevation
Compound: C[N+](C)(C)CCOC(N)=O [CCh, carbachol]

Compound: ghrelin (GSSFLSPEHQRVQQRKESKKPPAKLQP; ends and bridges not checked; UniProt Q9UBU3 24-50, looked up)
- Ca2+ response in insulin-expressing beta cells of islets ([2]; MIP-GFP mouse islets, EGFP-positive regions): absent in insulin-expressing beta cells
- Ca2+ response in pancreatic islets ([2]; then 1 mM p116, MIP-GFP mouse islets): elicited Ca^2+ signals with partially overlapping localization

Compound: Nc1ncnc2c1ncn2[C@@H]1O[C@H](COP(=O)(O)OP(=O)(O)OP(=O)(O)O)[C@@H](O)[C@H]1O [ATP]
- intracellular Ca2+ transients in GPR116-transfected HEK293T cells [3]: induced
- intracellular Ca2+ response in mock-transfected cells [4]: strongly increased intracellular Ca2+ levels

Compound: C=C1C(=O)N[C@@H](C)C(=O)N(C)[C@@H](C)C(=O)N[C@@H]([C@H](OC(=O)[C@@H](NC(=O)CC)[C@H](O)C(C)C)C(C)C)C(=O)N(C)[C@@H]([C@@H](C)OC)C(=O)O[C@H](C(C)C)[C@H](NC(C)=O)C(=O)O[C@H](Cc2ccccc2)C(=O)N1C [FR900359] (Ac-[X1][dPhLac][NMeDha]A[NMeA][X1](Leu(3R-OH,Nα-propionyl))[NMeT](Me); ester 1-C)
- effect of Gq inhibitor on p116-induced somatostatin secretion (Gαq/11 protein): completely abolished somatostatin secretion
